Counter-ions that a name gives are not always drawn.

For this test, the target named is T1, human β-Secretase (Homo sapiens, UniProt P56817).
T1 construct: soluble part of the human β-Secretase (AA 1-AA 460); Fc domain of IgG1 (C); made in house
T1 sequence (P56817 22-460): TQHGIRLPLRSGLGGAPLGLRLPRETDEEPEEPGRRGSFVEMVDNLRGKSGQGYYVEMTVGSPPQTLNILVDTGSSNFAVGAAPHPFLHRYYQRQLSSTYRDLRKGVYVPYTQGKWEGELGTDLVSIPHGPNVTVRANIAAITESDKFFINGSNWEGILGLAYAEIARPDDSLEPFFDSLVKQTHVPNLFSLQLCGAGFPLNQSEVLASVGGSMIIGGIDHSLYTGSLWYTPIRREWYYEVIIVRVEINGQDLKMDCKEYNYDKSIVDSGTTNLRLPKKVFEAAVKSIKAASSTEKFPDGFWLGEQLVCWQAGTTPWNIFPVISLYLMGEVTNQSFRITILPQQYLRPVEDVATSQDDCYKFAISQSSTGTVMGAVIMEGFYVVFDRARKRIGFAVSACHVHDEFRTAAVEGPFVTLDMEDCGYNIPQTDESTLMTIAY
The test is described as follows: TR-FRET assay (β-secretase enzyme, sBACE-Fc). The format is biochemical. Conditions: soluble human β-secretase (AA 1-460) Fc fusion, substrate (Europium)CEVNLDAEFK(Qsy7) 100 nM, pH 4.5; unit inferred, nM taken. The procedure: The β-secretase enzyme used in the TR-FRET is prepared as follows:
The cDNA for the soluble part of the human β-Secretase (AA 1-AA 460) was cloned using the ASP2-Fc10-1-IRES-GFP-neoK mammalian expression vector. The gene was fused to the Fc domain of IgG1 (affinity tag) and stably cloned into HEK 293 cells.
The enzyme (truncated form) was diluted to 6 μg/mL (stock 1.3 mg/mL) and the substrate (Europium)CEVNLDAEFK(Qsy7) to 200 nM (stock 120 μM) in reaction buffer (NaAcetate, chaps, triton x-100, EDTA pH4.5). The robotic systems Biomek FX and Velocity 11 were used for all liquid handling and the enzyme and substrate solutions were kept on ice until they were placed in the robotic system. Enzyme (9 μl) was added to the plate then 1 μl of compound in dimethylsulphoxide was added, mixed and pre-incubated for 10 minutes. Substrate (10 μl) was then added, mixed and the reaction proceeded for 15 minutes at room temperature. The reaction was stopped with the addition of Stop solution (7 μl, NaAcetate, pH 9). The fluorescence of the product was measured on a Victor II plate reader with an excitation wavelength of 340 nm and an emission wavelength of 615 nm. The assay was performed in a Costar 384 well round bottom, low volume, non-binding surface plate (Corning #3676). The final concentration of the enzyme was 2.7 μg/ml; the final concentration of substrate was 100 nM (Km of ˜250 nM). The dimethylsulphoxide control, instead of test compound, defined the 100% activity level and 0% activity was defined by wells lacking enzyme (replaced with reaction buffer).
(In general: Time-resolved FRET reads energy transfer from a long-lived donor to a nearby acceptor.)
`Cc1cc(C2(c3ccccc3)N=C(N)c3ncccc32)cc(C2CC2)c1OC(F)F` (centres unmarked) [Example 31, 5-[3-Cyclopropyl-4-(difluoromethoxy)-5-methyl-phenyl]-5-phenyl-pyrrolo[3,4-b]pyridin-7-amine] returned a half-inhibitory concentration (IC50) of 815 nM. In other words, the sub-micromolar range. `Cc1cc(C2(c3cccc(-c4cncnc4)c3)N=C(N)c3ncccc32)cc(C)c1F` (centres unmarked) [Example 14, 5-(4-Fluoro-3,5-dimethylphenyl)-5-(3-(pyrimidin-5-yl)phenyl)-5H-pyrrolo[3,4-b]pyridin-7-amine]: half-maximal inhibition (IC50) was put at 593 nM. The result for `Cc1cc(C2(c3cccc(-c4cncnc4)c3)N=C(N)c3ncc(Cl)cc32)ccn1` (centres unmarked) [Example 10, 3-Chloro-5-(2-methylpyridin-4-yl)-5-(3-(pyrimidin-5-yl)phenyl)-5H-pyrrolo[3,4-b]pyridin-7-amine] reads 639 nM; that for `COc1ccc(C2(c3cccc(-c4cncnc4)c3)N=C(N)c3ncccc32)cc1C1CC1` (centres unmarked) [Example 33, 5-(3-Cyclopropyl-4-methoxy-phenyl)-5-(3-pyrimidin-5-yl-phenyl)-5H-pyrrolo[3,4-b]pyridin-7-ylamine], 222 nM.

Turning to `COc1c(C)cc(C2(c3cccc(-c4cnccn4)c3)N=C(N)c3ncccc32)cc1F` (centres unmarked) [Example 15, 5-(3-Fluoro-4-methoxy-5-methylphenyl)-5-(3-(pyrazin-2-yl)phenyl)-5H-pyrrolo[3,4-b]pyridin-7-amine trifluoroacetic acid salt], the IC50 worked out at 96 nM. The result for `Cc1cc(C2(c3ccnc(-c4cncnc4)c3)N=C(N)c3ncccc32)cc(C2CC2)c1OC(F)F` (centres unmarked) [Example 30, 5-(3-Cyclopropyl-4-difluoromethoxy-5-methyl-phenyl)-5-(2-pyrimidin-5-yl-pyridin-4-yl)-5H-pyrrolo[3,4-b]pyridin-7-ylamine] reads 119 nM; that for `COc1ccc(C2(c3cccc(-c4cncnc4)c3)N=C(N)c3ncc(C)cc32)cc1` (centres unmarked) [Example 11, 5-(4-Methoxyphenyl)-3-methyl-5-(3-(pyrimidin-5-yl)phenyl)-5H-pyrrolo[3,4-b]pyridin-7-amine], 2120 nM. The result for `COc1c(C)cc(C2(c3cccc(-c4cncnc4)c3)N=C(N)c3ncccc32)nc1C` (centres unmarked) [Example 35, 5-(5-Methoxy-4,6-dimethyl-pyridin-2-yl)-5-(3-pyrimidin-5-yl-phenyl)-5H-pyrrolo[3,4-b]pyridin-7-ylamine] reads 125 nM.

The IC50 is the concentration that inhibits the measured activity by half. A lower IC50 goes with greater potency.
